Source: US20220226270A1, “VERY-LONG-CHAIN POLYUNSATURATED FATTY ACIDS, ELOVANOID HYDROXYLATED DERIVATIVES, AND METHODS OF USE” (Board of Supervisors of Louisiana State University and …, priority 2019, published 2022)

System: cerebral cortical mixed neuronal cells
Assay: Oxygen glucose deprivation (OGD) in cerebral cortical mixed neuronal cultures
Type: cell-based, rat
Conditions: for frequency distribution of pyknotic vs non-pyknotic nuclei (nuclear size peak) after OGD: 500 nM, DIV 12, 90 min OGD, Hoechst; for neuroprotection compared to OGD alone (Hoechst-positive nuclei, calcein-positive cell counting or MTT): 90 mins OGD, added after 2 h of reoxygenation at 200 nM, 500 nM or 1 μM, cortical mixed or hippocampal neurons; for neuroprotection after OGD by VLC-PUFA precursor: 250 nM, added after OGD exposure
From the text: Primary cultures of cortical neurons: Primary cultures of cortical and hippocampal neurons were harvested from 18-day-old embryos (E18) taken from timed-pregnant, two-month-old Sprague-Dawley (SD) rats (Charles River Lab., Wilmington, Mass.). Briefly, timed-pregnant SD rats were euthanized and embryos were collected in sterile conditions. Embryonic brains were dissected out by forceps on ice and placed in a petri dish containing ice-cold Hank's Balanced Salt Solution (HBSS) (GIBCO). Meninges were removed under a dissecting microscope and cortical tissues were chopped into small pieces with micro-spring scissors. These tissues were transferred to 15 ml tubes containing trypsin-EDTA (0.025% in HBSS) and DNase I. The tubes were incubated in 37° C. chamber for 15 mins and were agitated every 5 mins. After stopping the trypsinization with 5 ml 10% FBS, these tissues were triturated 15 times with a fire polished Pasteur pipet. Cell clumps were left to settle for 2 mins and the supernatant was transferred to a 15 ml Eppendorf tube. The supernatant was filtered through a 70 μm pore-sized filter (Corning cell strainer) and centrifuged for 5 mins at 1000 rpm. The cells were then resuspended in Neurobasal medium (GIBCO) containing 2% B27 (GIBCO) and 2% N2 (GIBCO) supplements, along with 0.5 mM glutamine, 50 U/ml penicillin/streptomycin.
Cells were counted using a Neubauer hemocytometer. 1×10^6 cells were seeded on poly-D-lysine-coated 12 well cell culture dish (CORNING) and cultured in incubator (37° C., 5% CO2). Culture medium was first replaced after 24 h, then half of the medium was replaced with fresh medium every three days. As a result, approximately, 90% purity of neurons was obtained as determined by class-III-β tubulin, GFAP and Hoechst 33258 staining. Cells were maintained in culture for about 2 weeks until they were exposed to uncompensated oxidative stress, OGD, or NMDA excitotoxicity.
Oxygen glucose deprivation (OGD), NMDA excitotoxicity or uncompensated oxidative stress (UOS) exposure: An in vitro oxygen glucose deprivation (OGD) model was established. Primary cortical neurons were cultured from SD rat embryos. On day in vitro (DIV) 12, cells were washed with phosphate-buffered saline and incubated in glucose-free Neurobasal medium (GIBCO) for 30 mins. The cells were then placed in a modular incubator chamber and incubated in an anaerobic chamber (95% N2, 5% CO2) at 37° C. for 90 mins for OGD.
After 90 mins of OGD exposure, cells were returned to the original medium (Neurobasal medium (GIBCO) containing 2% B27 (GIBCO) and 2% N2 (GIBCO) supplements, along with 0.5 mM glutamine, 50 U/ml penicillin/streptomycin) and placed in a normoxic chamber (37° C., 5% CO2) for 2 h. Then the medium was changed with medium containing either ELV-N32 or ELV-N34 [500 nM] and maintained in a normoxic chamber (37° C., 5% CO2) for 12 h, after which cells were sampled and assayed for cell viability using different methods as previously described (25-28). Cerebral cortical mixed neuronal cells or hippocampal cells in culture were exposed to either NMDA or uncompensated oxidative stress (UOS) for 12 h by addition of either NMDA (25 μM, 50 μM, or 100 μM) concentration or by the addition of TNFα (10 ng/mL) and H2O2 (50 μM, 100 μM, or 200 μM). Cell viability and neuroprotection in the presence of ELV-N32, ELV-N34, 32:6, or 34:6 were assayed after 12 h.
Hoechst staining and unbiased image analysis: Cells were washed with 1× Dulbecco's Phosphate Buffered Saline (DPBS) containing no calcium or magnesium (GIBCO) and fixed for 10 mins using ice-cold 4% paraformaldehyde (PFA) followed by 15 mins incubation in 100% methanol. Cells were washed with 1× Phosphate Buffered Saline (PBS) pH 7.4 (GIBCO) and incubated in PBS containing 20 μM Hoechst 33258 (Molecular Probes) for 20 mins. Cells were then washed 3 times with 1× PBS and stored in 1× PBS at 4° C. until they were imaged for microscopy. […]

## CC/C=C\C[C@H](O)\C=C/C=C/C=C/[C@H](O)C/C=C\C/C=C\CCCCCCCCCCCCCCC(=O)OC [ELV-N34-Me, methyl (16Z,19Z,22R,23E,25E,27Z,29S,31Z)-22,29-dihydroxytetratriaconta-16,19,23,25,27,31-hexaenoate]
  frequency distribution of pyknotic vs non-pyknotic nuclei (nuclear size peak) after OGD: positive rightward shift
  neuroprotection compared to OGD alone (Hoechst-positive nuclei, calcein-positive cell counting or MTT): elicited neuroprotection

## CC/C=C\C[C@H](O)\C=C/C=C/C=C/[C@H](O)C/C=C\C/C=C\CCCCCCCCCCCCCCC(=O)[O-].[Na+] [ELV-N34-Na, sodium (16Z,19Z,22R,23E,25E,27Z,29S,31Z)-22,29-dihydroxytetratriaconta-16,19,23,25,27,31-hexaenoate]
  neuroprotection compared to OGD alone (Hoechst-positive nuclei, calcein-positive cell counting or MTT): elicited neuroprotection

## CC/C=C\C[C@H](O)\C=C/C=C/C=C/[C@H](O)C/C=C\C/C=C\CCCCCCCCCCCCC(=O)OC [ELV-N32-Me, methyl (14Z,17Z,20R,21E,23E,25Z,27S,29Z)-20,27-dihydroxydotriaconta-14,17,21,23,25,29-hexaenoate]
  neuroprotection compared to OGD alone (Hoechst-positive nuclei, calcein-positive cell counting or MTT): elicited neuroprotection

## CC/C=C\C/C=C\C/C=C\C/C=C\C/C=C\C/C=C\CCCCCCCCCCCCC(=O)O [32:6n3, (14Z,17Z,20Z,23Z,26Z,29Z)-dotriaconta-14,17,20,23,26,29-hexaenoic acid]
  neuroprotection after OGD by VLC-PUFA precursor: provide neuroprotection

## CC/C=C\C[C@H](O)\C=C/C=C/C=C/[C@H](O)C/C=C\C/C=C\CCCCCCCCCCCCC(=O)[O-].[Na+] [ELV-N32-Na, sodium (14Z,17Z,20R,21E,23E,25Z,27S,29Z)-20,27-dihydroxydotriaconta-14,17,21,23,25,29-hexaenoate]
  frequency distribution of pyknotic vs non-pyknotic nuclei (nuclear size peak) after OGD: positive rightward shift
  neuroprotection compared to OGD alone (Hoechst-positive nuclei, calcein-positive cell counting or MTT): elicited neuroprotection

## CC/C=C\C/C=C\C/C=C\C/C=C\C/C=C\C/C=C\CCCCCCCCCCCCCCC(=O)O [34:6n3, (16Z,19Z,22Z,25Z,28Z,31Z)-tetratriaconta-16,19,22,25,28,31-hexaenoic acid]
Listed as 34:6
  neuroprotection after OGD by VLC-PUFA precursor: elicit neuroprotection
